Read-outs that look alike come from different tables or passages of the source. Some results are limits rather than exact numbers.

The test concerns cancer cells. The experiment in a line: MTS cell growth inhibition assay (72 hours). It is filed as cell-based. The method, boiled down: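 Cells in DMEM with 1% FBS, seeded 18 h, then compound-treated 72 h at 37 °C. Viability by MTS/PMS for 4 h, formazan absorbance at 492 nm; IC50 taken as concentration giving 50% absorbance drop, activity banded by percent inhibition.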
[1] abbreviates: Homo sapiens, DLD-1, 72 h, DLD-1 cells, read-out: DLD-1 MTS 72 hr at 10 μM.
Setting [2] is: Homo sapiens, KATO III, 72 h, KATO III cells, read-out: KATO III MTS 72 hr at 10 μM.
Setting [3] is: Homo sapiens, MDA-MB-231, 72 h, MDA-MB-231 cells, read-out: MDA-MB-231 MTS 72 hr at 10 μM.
Where [4] appears, read: Homo sapiens, NCI-H1299, 72 h, NCI-H1299 cells, read-out: NCI-H1299 MTS 72 hr at 10 μM.
Where [5] appears, read: PaCa-2, 72 h, PACA-2 cells, read-out: PACA-2 MTS 72 hr at 10 μM.

Consider `Nc1nc(NC2CCN(S(=O)(=O)c3cccc4c(Cl)cccc34)c3ccccc3C2)c2cn[nH]c2n1` (stereo not shown) [Compound 187, N4-{1-[(5-chloro-1-naphthyl)sulfonyl]-2,3,4,5-tetrahydro-1H-1-benzazepin-4-yl}-1H-pyrazolo[3,4-d]pyrimidine-4,6-diamine], for which the inhibition at 10 µM under setting [1] was 50 to 79%; the inhibition at 10 µM under setting [2] is 50 to 79%; the inhibition at 10 µM under setting [3] is less than 50%; the inhibition at 10 µM under setting [4] was less than 50%; the inhibition at 10 µM under setting [5] was in the range of 50 to 79%.
On to `Nc1nc(NC2Cc3ccccc3N(S(=O)(=O)c3ccc(NC(=O)Nc4ccc(C(F)(F)F)cc4)cc3)C2)c2cn[nH]c2n1` (stereo not shown) [Compound 188, 1-[4-({3-[(6-amino-1H-pyrazolo[3,4-d]pyrimidin-4-yl)amino]-3,4-dihydroquinolin-1(2H)-yl}sulfonyl)phenyl]-3-[4-(trifluoromethyl)phenyl]urea], for which the inhibition at 10 µM reads like this: under setting [1], greater than 79%; under setting [2], greater than 79%; under setting [3], greater than 79%; under setting [4], greater than 79%; under setting [5], greater than 79%.
With `Nc1nc(NC2Cc3ccccc3N(S(=O)(=O)c3ccc(NC(=O)Nc4ccc5ccccc5c4)cc3)C2)c2cn[nH]c2n1` (stereo not shown) [Compound 189, 1-[4-({3-[(6-amino-1H-pyrazolo[3,4-d]pyrimidin-4-yl)amino]-3,4-dihydroquinolin-1(2H)-yl}sulfonyl)phenyl]-3-(2-naphthyl)urea], the inhibition at 10 µM was greater than 79% under setting [1]; greater than 79% under setting [2]; greater than 79% under setting [3]; greater than 79% under setting [4]; greater than 79% under setting [5].
Consider `Nc1nc(NC2Cc3ccccc3N(S(=O)(=O)c3ccc(NC(=O)Nc4ccccc4Cl)cc3)C2)c2cn[nH]c2n1` (stereo not shown) [Compound 190, 1-[4-({3-[(6-amino-1H-pyrazolo[3,4-d]pyrimidin-4-yl)amino]-3,4-dihydroquinolin-1(2H)-yl}sulfonyl)phenyl]-3-(2-chlorophenyl)urea], for which the inhibition at 10 µM was less than 50% under setting [1]; less than 50% under setting [2]; less than 50% under setting [3]; less than 50% under setting [4]; less than 50% under setting [5].
Regarding `Nc1nc(NC2Cc3ccccc3N(S(=O)(=O)c3ccc(NC(=O)Nc4ccccc4F)cc3)C2)c2cn[nH]c2n1` (stereo not shown) [Compound 191, 1-[4-({3-[(6-amino-1H-pyrazolo[3,4-d]pyrimidin-4-yl)amino]-3,4-dihydroquinolin-1(2H)-yl}sulfonyl)phenyl]-3-(2-fluorophenyl)urea], the inhibition at 10 µM is less than 50% under setting [1]; less than 50% under setting [2]; less than 50% under setting [3]; less than 50% under setting [4]; less than 50% under setting [5].
Turning to `Nc1nc(NC2Cc3ccccc3N(S(=O)(=O)c3ccc(NC(=O)NC4CCCc5ccccc54)cc3)C2)c2cn[nH]c2n1` (stereo not shown) [Compound 192, 1-[4-({3-[(6-amino-1H-pyrazolo[3,4-d]pyrimidin-4-yl)amino]-3,4-dihydroquinolin-1(2H)-yl}sulfonyl)phenyl]-3-(1,2,3,4-tetrahydronaphthalen-1-yl)urea], the inhibition at 10 µM under setting [1] is greater than 79%; the inhibition at 10 µM under setting [2] is greater than 79%; the inhibition at 10 µM under setting [3] is greater than 79%; the inhibition at 10 µM under setting [4] was greater than 79%; the inhibition at 10 µM under setting [5] is greater than 79%.
`Nc1nc(NC2Cc3ccccc3N(S(=O)(=O)c3ccc(NC(=O)Nc4ccc5c(c4)CCC5)cc3)C2)c2cn[nH]c2n1` (stereo not shown) [Compound 193, 1-[4-({3-[(6-amino-1H-pyrazolo[3,4-d]pyrimidin-4-yl)amino]-3,4-dihydroquinolin-1(2H)-yl}sulfonyl)phenyl]-3-(2,3-dihydro-1H-inden-5-yl)urea]: the inhibition at 10 µM runs as follows: under setting [1], 50 to 79%; under setting [2], greater than 79%; under setting [3], 50 to 79%; under setting [4], greater than 79%; under setting [5], greater than 79%.
In the case of `Nc1nc(NC2Cc3ccccc3N(S(=O)(=O)c3ccc(NC(=O)Nc4ccc(F)c(F)c4)cc3)C2)c2cn[nH]c2n1` (stereo not shown) [Compound 194, 1-[4-({3-[(6-amino-1H-pyrazolo[3,4-d]pyrimidin-4-yl)amino]-3,4-dihydroquinolin-1(2H)-yl}sulfonyl)phenyl]-3-(3,4-difluorophenyl)urea], the inhibition at 10 µM runs as follows: under setting [1], greater than 79%; under setting [2], greater than 79%; under setting [3], greater than 79%; under setting [4], greater than 79%; under setting [5], greater than 79%.
`Cc1cccc(NC(=O)Nc2ccc(S(=O)(=O)N3CC(Nc4nc(N)nc5[nH]ncc45)Cc4ccccc43)cc2)c1` (stereo not shown) [Compound 195, 1-[4-({3-[(6-amino-1H-pyrazolo[3,4-d]pyrimidin-4-yl)amino]-3,4-dihydroquinolin-1(2H)-yl}sulfonyl)phenyl]-3-(3-methylphenyl)urea]: the inhibition at 10 µM by setting is: under setting [1], greater than 79%; under setting [2], greater than 79%; under setting [3], greater than 79%; under setting [4], less than 50%; under setting [5], greater than 79%.
Consider `Nc1nc(NC2Cc3ccccc3N(S(=O)(=O)c3ccc(NC(=O)Nc4cc(C(F)(F)F)ccc4F)cc3)C2)c2cn[nH]c2n1` (stereo not shown) [Compound 196, 1-[4-({3-[(6-amino-1H-pyrazolo[3,4-d]pyrimidin-4-yl)amino]-3,4-dihydroquinolin-1(2H)-yl}sulfonyl)phenyl]-3-[2-fluoro-5-(trifluoromethyl)phenyl]urea], for which the inhibition at 10 µM was greater than 79% under setting [1]; greater than 79% under setting [2]; greater than 79% under setting [3]; 50 to 79% under setting [4]; greater than 79% under setting [5].
`Nc1nc(NC2Cc3ccccc3N(S(=O)(=O)c3ccc(NC(=O)Nc4cc(F)cc(C(F)(F)F)c4)cc3)C2)c2cn[nH]c2n1` (stereo not shown) [Compound 197, 1-[4-({3-[(6-amino-1H-pyrazolo[3,4-d]pyrimidin-4-yl)amino]-3,4-dihydroquinolin-1(2H)-yl}sulfonyl)phenyl]-3-[3-fluoro-5-(trifluoromethyl)phenyl]urea]: the inhibition at 10 µM is, setting by setting: under setting [1], greater than 79%; under setting [2], greater than 79%; under setting [3], greater than 79%; under setting [4], greater than 79%; under setting [5], greater than 79%.
For `Nc1nc(NC2Cc3ccccc3N(S(=O)(=O)c3ccc(NC(=O)Nc4ccc5c(c4)Cc4ccccc4-5)cc3)C2)c2cn[nH]c2n1` (stereo not shown) [Compound 198, 1-[4-({3-[(6-amino-1H-pyrazolo[3,4-d]pyrimidin-4-yl)amino]-3,4-dihydroquinolin-1(2H)-yl}sulfonyl)phenyl]-3-(9H-fluoren-2-yl)urea], the inhibition at 10 µM is, setting by setting: under setting [1], greater than 79%; under setting [2], greater than 79%; under setting [3], less than 50%; under setting [4], greater than 79%; under setting [5], less than 50%.
Consider `Nc1nc(NC2Cc3ccccc3N(S(=O)(=O)c3cccc(NC(=O)Nc4cccc(C(F)(F)F)c4)c3)C2)c2cn[nH]c2n1` (stereo not shown) [Compound 199, 1-[3-({3-[(6-amino-1H-pyrazolo[3,4-d]pyrimidin-4-yl)amino]-3,4-dihydroquinolin-1(2H)-yl}sulfonyl)phenyl]-3-[3-(trifluoromethyl)phenyl]urea], for which the inhibition at 10 µM is greater than 79% under setting [1]; greater than 79% under setting [2]; greater than 79% under setting [3]; greater than 79% under setting [4]; greater than 79% under setting [5].
For `Nc1nc(NC2Cc3ccccc3N(S(=O)(=O)c3cccc(NC(=O)Nc4ccccc4)c3)C2)c2cn[nH]c2n1` (stereo not shown) [Compound 200, 1-[3-({3-[(6-amino-1H-pyrazolo[3,4-d]pyrimidin-4-yl)amino]-3,4-dihydroquinolin-1(2H)-yl}sulfonyl)phenyl]-3-phenylurea], the inhibition at 10 µM under setting [1] is less than 50%; the inhibition at 10 µM under setting [2] was less than 50%; the inhibition at 10 µM under setting [3] was less than 50%; the inhibition at 10 µM under setting [4] is less than 50%; the inhibition at 10 µM under setting [5] was less than 50%.
For `Nc1nc(NC2Cc3ccccc3N(S(=O)(=O)c3cccc(NC(=O)Nc4cccc(Cl)c4)c3)C2)c2cn[nH]c2n1` (stereo not shown) [Compound 201, 1-[3-({3-[(6-amino-1H-pyrazolo[3,4-d]pyrimidin-4-yl)amino]-3,4-dihydroquinolin-1(2H)-yl}sulfonyl)phenyl]-3-(3-chlorophenyl)urea], the inhibition at 10 µM is, setting by setting: under setting [1], greater than 79%; under setting [2], greater than 79%; under setting [3], greater than 79%; under setting [4], greater than 79%; under setting [5], greater than 79%.
`Nc1nc(NC2Cc3ccccc3N(S(=O)(=O)c3cccc(NC(=O)Nc4ccc5c(c4)Cc4ccccc4-5)c3)C2)c2cn[nH]c2n1` (stereo not shown) [Compound 202, 1-[3-({3-[(6-amino-1H-pyrazolo[3,4-d]pyrimidin-4-yl)amino]-3,4-dihydroquinolin-1(2H)-yl}sulfonyl)phenyl]-3-(9H-fluoren-2-yl)urea]: the inhibition at 10 µM reads like this: under setting [1], greater than 79%; under setting [2], greater than 79%; under setting [3], greater than 79%; under setting [4], 50 to 79%; under setting [5], greater than 79%.
With `Nc1nc(NC2Cc3ccccc3N(S(=O)(=O)c3cccc(NC(=O)Nc4c(F)cccc4F)c3)C2)c2cn[nH]c2n1` (stereo not shown) [Compound 203, 1-[3-({3-[(6-amino-1H-pyrazolo[3,4-d]pyrimidin-4-yl)amino]-3,4-dihydroquinolin-1(2H)-yl}sulfonyl)phenyl]-3-(2,6-difluorophenyl)urea], the inhibition at 10 µM was less than 50% under setting [1]; less than 50% under setting [2]; less than 50% under setting [3]; less than 50% under setting [4]; 50 to 79% under setting [5].

The record behind these values is patent US8273754B2, “Substituted 1H-pyrazolo[3,4-D]pyrimidine-6-amine compounds” (ArQule, Inc., priority 2008, dated 2012).
